# Assay results reported in patent US6914045B2, “Glycopeptide antibiotics” (Wyeth Holdings Corporation, priority 2001, dated 2005).
# Numbered stars: 1 amine (or outer) side, 2 acyl side, 3 side chain; on linkers, the order of the positions; unused ones are H or OH. Square brackets hold non-standard residues; d marks the D form. Peptide text beside a SMILES is read from it. ξ: configuration not given here. X1 = N=C1NCC(C(O)C(N[*:1])C(=O)[*:2])N1C1OC(CO)C(O)C(O)C1O; ξEnduracididine(βξ-OH,4'ξ) = N=C1NCC(C(O)C(N)C(=O)O)N1; Cha = N[CH](CC1CCCCC1)C(=O)O
# How the values were obtained:
# [1] = clinical pathology (serum clinical chemistry) in mice; type: in vivo; conditions: CD-1 mice, 20 mg/kg intravenously daily for 9 days, sera day 10
# Protocol: 20-day-old CD-1 mice were divided into a vehicle control group (5 mice) and a treatment group (5 mice). Samples of glycopeptide antibiotics were administered at 20 mg/kg intravenously daily for 9 days.
# [2] = anatomic pathology (histopathology of heart and kidney) in mice; type: in vivo; conditions: CD-1 mice, 20 mg/kg intravenously daily for 9 days, necropsy day 10, microscopic histopathology
# Protocol: Samples of tissues from necropsied mice were formalin-fixed, paraffin-embedded, sectioned, stained with hematoxylin and eosin, and examined microscopically. Histopathologic findings were recorded. These findings were subjectively graded on a scale corresponding to slight, mild, moderate, marked and severe as compared to untreated controls.
# [3] = test system: Staphylococcus sp.; assay: in vitro antibacterial evaluation, MIC by broth dilution; type: cell-based; conditions: broth dilution, 18 hours at 35° C.
# Procedure, shortened: (§1)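 Following National Committee for Clinical Laboratory Standards recommendations (M7-A2), susceptibility was measured by dilution in Muller-Hinton II […]. Bacteria were seeded at 5×10^5 CFU/mL against compound concentrations from 64 down to 0.06 μg/mL.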
# [4] = test system: Streptococcus sp.; assay: as above; type: cell-based; conditions: broth dilution, 18 hours at 35° C.
# Procedure, shortened: as §1
# [5] = test system: Enterococcus sp.; assay: as above; type: cell-based; conditions: broth dilution, 18 hours at 35° C.
# Procedure, shortened: as §1
# [6] = test system: Escherichia coli; assay: as above; type: cell-based; conditions: broth dilution, 18 hours at 35° C.
# Procedure, shortened: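 Broth dilution in Muller-Hinton II medium per NCCLS standard M7-A2, with an inoculum of 5×10^5 CFU/mL and antibiotic tested over 64-0.06 μg/mL. MIC was taken as the lowest concentration inhibiting visible growth.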
smiles,measurement,setting,value
"N=C1NCC(C(O)C2NC(=O)C(CC3CCCCC3)NC(=O)C(CC3CCCCC3)NC(=O)CNC(=O)C(CO)NC(=O)C(C(O)C3CNC(=N)N3C3OC(CO)C(O)C(O)C3O)NC2=O)N1 (stereo not drawn) [Example 52, Cyclo[3-cyclohexylalanyl-3-cyclohexylalanyl-3-(2-iminoimidazolidin-4-yl)seryl-3-(3-hexopyranosyl-2-iminoimidazolidin-4-yl)serylserylglycyl]] (cyclo(G[Cha][Cha][ξEnduracididine(βξ-OH,4'ξ)][X1]S); configuration not given here)","Clinical Chemistry (Day 10) % of Control, BUN",[1],211%
same,"Anatomical Pathology (Day 10), Heart",[2],0
same,"Anatomical Pathology (Day 10), Kidney",[2],+++
same,MIC Staphylococcus aureus (ATCC 29213),[3]; strain ATCC 29213,16 µg/mL
same,MIC Staphylococcus aureus (GC 1131),[3]; strain GC 1131,16 µg/mL
same,MIC Staphylococcus aureus (GC 3051),[3]; strain GC 3051,16 µg/mL
same,MIC Staphylococcus aureus (GC 3053),[3]; strain GC 3053,32 µg/mL
same,MIC Staphylococcus aureus (GC 4541),[3]; strain GC 4541,16 µg/mL
same,MIC Staphylococcus aureus (GC 4542),[3]; strain GC 4542,8 µg/mL
same,MIC Staphylococcus aureus-SMITH (GC 4543),[3]; strain GC 4543,16 µg/mL
same,MIC Staphylococcus aureus (GC 4544),[3]; strain GC 4544,16 µg/mL
same,MIC Staphylococcus aureus (GC 4545),[3]; strain GC 4545,8 µg/mL
same,MIC Staphylococcus haemolyticus (GC 4546),[3]; strain GC 4546,4 µg/mL
same,MIC Coagulase Negative Staphylococcus (GC 4547),[3]; strain GC 4547,8 µg/mL
same,MIC Coagulase Negative Staphylococcus (GC 4548),[3]; strain GC 4548,8 µg/mL
same,MIC Coagulase Negative Staphylococcus (GC 4549),[3]; strain GC 4549,4 µg/mL
same,MIC Coagulase Negative Staphylococcus (GC 4551),[3]; strain GC 4551,8 µg/mL
same,MIC Streptococcus pneumoniae (ATCC 6301),[4]; strain ATCC 6301,8 µg/mL
same,MIC Streptococcus pneumoniae (GC 1894),[4]; strain GC 1894,8 µg/mL
same,MIC Streptococcus pyogenes (GC 4563),[4]; strain GC 4563,8 µg/mL
same,MIC Streptococcus agalactiae (GC 4564),[4]; strain GC 4564,8 µg/mL
same,MIC Streptococcus pneumoniae (GC 4565),[4]; strain GC 4565,16 µg/mL
same,MIC Enterococcus faecalis (ATCC 29212),[5]; strain ATCC 29212,64 µg/mL
same,MIC Enterococcus faecalis (GC 2242),[5]; strain GC 2242,32 µg/mL
same,MIC Enterococcus faecium (GC 2243),[5]; strain GC 2243,16 µg/mL
same,MIC Enterococcus faecalis (GC 2691),[5]; strain GC 2691,32 µg/mL
same,MIC Enterococcus faecalis (GC 3059),[5]; strain GC 3059,32 µg/mL
same,MIC Enterococcus faecalis (GC 4552),[5]; strain GC 4552,32 µg/mL
same,MIC Enterococcus faecalis (GC 4553),[5]; strain GC 4553,16 µg/mL
same,MIC Enterococcus faecalis (GC 4554),[5]; strain GC 4554,64 µg/mL
same,MIC Enterococcus faecium (GC 4556),[5]; strain GC 4556,32 µg/mL
same,MIC Enterococcus faecium (GC 4557),[5]; strain GC 4557,8 µg/mL
same,MIC Enterococcus avium (GC 4558),[5]; strain GC 4558,32 µg/mL
same,MIC Enterococcus faecalis (GC 6189),[5]; strain GC 6189,32 µg/mL
same,MIC Escherichia coli (ATCC 25922),[6]; strain ATCC 25922,64 µg/mL
same,MIC Escherichia coli (GC 4559),[6]; strain GC 4559,64 µg/mL
same,MIC Escherichia coli (GC 4560),[6]; strain GC 4560,16 µg/mL
